Assay results: ChEMBL document CHEMBL1201861, “Genomics of Drug Sensitity in Cancer screening data, Wellcome Trust Sanger Institute”

Tests used:
Assay in all cases: cells
ES3 = assay type: functional, cell-based, Homo sapiens; details: Homo sapiens, ES3;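 further: growth inhibition of ES3 cells, read out with a cell viability assay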
Description: SANGER: Inhibition of human ES3 cell growth in a cell viability assay.

EW-13 = assay type: functional, cell-based; details: Homo sapiens;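 further: growth inhibition of EW-13 cells, read out with a cell viability assay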
Description: SANGER: Inhibition of human EW-13 cell growth in a cell viability assay.

GB-1 = assay type: functional, cell-based, Homo sapiens; details: Homo sapiens, GB-1;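 further: growth of GB-1 cells judged by a viability assay, IC50 marks the concentration inhibiting growth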
Description: SANGER: Inhibition of human GB-1 cell growth in a cell viability assay.

GCIY = assay type: functional, cell-based, Homo sapiens; details: Homo sapiens, GCIY;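 further: growth inhibition of the human GCIY cell line, read out by a cell viability assay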
Description: SANGER: Inhibition of human GCIY cell growth in a cell viability assay.

GOTO = assay type: functional, cell-based, Homo sapiens; details: Homo sapiens, GOTO;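 further: growth inhibition of GOTO cells, read out by a cell viability assay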
Description: SANGER: Inhibition of human GOTO cell growth in a cell viability assay.

GR-ST = assay type: functional, cell-based; details: Homo sapiens
Description: SANGER: Inhibition of human GR-ST cell growth in a cell viability assay.

GT3TKB = assay type: functional, cell-based, Homo sapiens; details: Homo sapiens, GT3TKB;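 further: growth inhibition of the cell line, read out with a cell viability assay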
Description: SANGER: Inhibition of human GT3TKB cell growth in a cell viability assay.

HCC1395 = assay type: functional, cell-based, Homo sapiens; details: Homo sapiens, HCC1395;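 further: growth inhibition of HCC1395 cells, read out by a cell viability assay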
Description: SANGER: Inhibition of human HCC1395 cell growth in a cell viability assay.

HCC1419 = assay type: functional, cell-based, Homo sapiens; details: Homo sapiens, HCC1419;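 further: growth inhibition of human HCC1419 cells, read out as cell viability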
Description: SANGER: Inhibition of human HCC1419 cell growth in a cell viability assay.

HCC1937 = assay type: functional, cell-based, Homo sapiens; details: Homo sapiens, HCC1937;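 further: growth inhibition measured with a cell viability read-out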
Description: SANGER: Inhibition of human HCC1937 cell growth in a cell viability assay.

HPAF-II = assay type: functional, cell-based, Homo sapiens; details: Homo sapiens, HPAF-II;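 further: growth inhibition of HPAF-II cells, read out with a cell viability assay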
Description: SANGER: Inhibition of human HPAF-II cell growth in a cell viability assay.

HuCCT-1 = assay type: functional, cell-based, Homo sapiens, HuCCT1; details: Homo sapiens, HuCCT-1;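 further: growth inhibition of HuCCT-1 cells, read out by a cell viability assay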
Description: SANGER: Inhibition of human HuCCT1 cell growth in a cell viability assay.

HuP-T4 = assay type: functional, cell-based, Homo sapiens; details: Homo sapiens, HuP-T4;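 further: cell viability assay measuring how much HuP-T4 cell growth is inhibited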
Description: SANGER: Inhibition of human HuP-T4 cell growth in a cell viability assay.

KP-N-YS = assay type: functional, cell-based; details: Homo sapiens;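 further: cell viability assay measuring inhibition of cell line growth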
Description: SANGER: Inhibition of human KP-N-YS cell growth in a cell viability assay.

KYSE-140 = assay type: functional, cell-based, Homo sapiens; details: Homo sapiens, KYSE-140;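 further: cell viability assay measuring growth inhibition in human KYSE-140 cells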
Description: SANGER: Inhibition of human KYSE-140 cell growth in a cell viability assay.

KYSE-270 = assay type: functional, cell-based, Homo sapiens; details: Homo sapiens, KYSE-270;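 further: cell growth inhibition measured with a viability assay in the human KYSE-270 line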
Description: SANGER: Inhibition of human KYSE-270 cell growth in a cell viability assay.

MDA-MB-231 = assay type: functional, cell-based, Homo sapiens; details: Homo sapiens, MDA-MB-231
Description: SANGER: Inhibition of human MDA-MB-231 cell growth in a cell viability assay.

MHH-NB-11 = assay type: functional, cell-based, Homo sapiens; details: Homo sapiens, MHH-NB-11;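 further: growth inhibition of human MHH-NB-11 cells, read out by a cell viability assay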
Description: SANGER: Inhibition of human MHH-NB-11 cell growth in a cell viability assay.

MKN-1 = assay type: functional, cell-based, Homo sapiens; details: Homo sapiens, MKN-1;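 further: growth inhibition of human MKN1 cells, read out by a cell viability measurement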
Description: SANGER: Inhibition of human MKN1 cell growth in a cell viability assay.

MMAC-SF = assay type: functional, cell-based, Homo sapiens; details: Homo sapiens, MMAC-SF;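 further: growth inhibition of human MMAC-SF cells, read out with a cell viability assay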
Description: SANGER: Inhibition of human MMAC-SF cell growth in a cell viability assay.

MS-1 = assay type: functional, cell-based; details: Homo sapiens;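 further: growth inhibition of MS-1 cells, read out by cell viability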
Description: SANGER: Inhibition of human MS-1 cell growth in a cell viability assay.

NCI-H1092 = assay type: functional, cell-based; details: Homo sapiens;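 further: cell growth inhibition measured with a cell viability assay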
Description: SANGER: Inhibition of human NCI-H1092 cell growth in a cell viability assay.

NCI-H1299 = assay type: functional, cell-based, Homo sapiens; details: Homo sapiens, NCI-H1299;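 further: growth inhibition of human NCI-H1299 cells, read out by a cell viability assay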
Description: SANGER: Inhibition of human NCI-H1299 cell growth in a cell viability assay.

NCI-H2452 = assay type: functional, cell-based, Homo sapiens; details: Homo sapiens, NCI-H2452;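 further: growth inhibition of NCI-H2452 cells, read out with a cell viability assay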
Description: SANGER: Inhibition of human NCI-H2452 cell growth in a cell viability assay.

NCI-H661 = assay type: functional, cell-based, Homo sapiens; details: Homo sapiens, NCI-H661;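 further: cell viability assay read-out, IC50 being the concentration that inhibits growth of the cells by half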
Description: SANGER: Inhibition of human NCI-H661 cell growth in a cell viability assay.

NCI-N87 = assay type: functional, cell-based, Homo sapiens; details: Homo sapiens, NCI-N87;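 further: growth inhibition of human NCI-N87 cells, read out with a cell viability assay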
Description: SANGER: Inhibition of human NCI-N87 cell growth in a cell viability assay.

OAW-28 = assay type: functional, cell-based, Homo sapiens; details: Homo sapiens, OAW-28;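 further: growth inhibition of OAW-28 cells, read out with a cell viability assay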
Description: SANGER: Inhibition of human OAW-28 cell growth in a cell viability assay.

OVCAR-5 = assay type: functional, cell-based, Homo sapiens; details: Homo sapiens, OVCAR-5;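 further: growth inhibition of human OVCAR-5 cells, read out with a cell viability assay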
Description: SANGER: Inhibition of human OVCAR-5 cell growth in a cell viability assay.

P12-Ichikawa = assay type: functional, cell-based; details: Homo sapiens
PFSK-1 = assay type: functional, cell-based, Homo sapiens; details: Homo sapiens, PFSK-1;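 further: cell viability assay measuring how strongly compounds suppress growth of human PFSK-1 cells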
Description: SANGER: Inhibition of human PFSK-1 cell growth in a cell viability assay.

RO82-W-1 = assay type: functional, cell-based, Homo sapiens; details: Homo sapiens, RO82-W-1;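 further: growth inhibition of human RO82-W-1 cells, measured with a cell viability assay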
Description: SANGER: Inhibition of human RO82-W-1 cell growth in a cell viability assay.

RS4-11 = assay type: functional, cell-based; details: Homo sapiens;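 further: growth inhibition of RS4-11 cells, read out by a cell viability assay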
Description: SANGER: Inhibition of human RS4-11 cell growth in a cell viability assay.

SBC-1 = assay type: functional, cell-based; details: Homo sapiens;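 further: cell viability assay measuring growth inhibition of the SBC-1 cell line, IC50 being the concentration that halves growth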
Description: SANGER: Inhibition of human SBC-1 cell growth in a cell viability assay.

SBC-5 = assay type: functional, cell-based, Homo sapiens; details: Homo sapiens, SBC-5;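 further: cell viability assay read-out, IC50 is the concentration that inhibits growth of the cells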
Description: SANGER: Inhibition of human SBC-5 cell growth in a cell viability assay.

SCC-15 = assay type: functional, cell-based, Homo sapiens; details: Homo sapiens, SCC-15;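 further: growth inhibition of SCC-15 cells, read out with a cell viability assay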
Description: SANGER: Inhibition of human SCC-15 cell growth in a cell viability assay.

SCC-4 = assay type: functional, cell-based, Homo sapiens; details: Homo sapiens, SCC-4;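 further: growth inhibition of human SCC-4 cells, read out as cell viability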
Description: SANGER: Inhibition of human SCC-4 cell growth in a cell viability assay.

SK-N-DZ = assay type: functional, cell-based, Homo sapiens; details: Homo sapiens, SK-N-DZ;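 further: growth inhibition of the cancer cell line, read out through a viability assay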
Description: SANGER: Inhibition of human SK-N-DZ cell growth in a cell viability assay.

SKG-IIIa = assay type: functional, cell-based, Homo sapiens; details: Homo sapiens, SKG-IIIa;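 further: cell growth inhibition, read out with a cell viability assay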
Description: SANGER: Inhibition of human SKG-IIIa cell growth in a cell viability assay.

SW982 = assay type: functional, cell-based; details: Homo sapiens;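 further: growth inhibition of SW982 cells, read out with a cell viability assay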
Description: SANGER: Inhibition of human SW982 cell growth in a cell viability assay.

T84 = assay type: functional, cell-based, Homo sapiens; details: Homo sapiens, T84;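 further: growth inhibition measured with a cell viability readout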
Description: SANGER: Inhibition of human T84 cell growth in a cell viability assay.

697 = assay type: functional, cell-based; details: Homo sapiens
Description: SANGER: Inhibition of human 697 cell growth in a cell viability assay.

769-P = assay type: functional, cell-based, Homo sapiens; details: Homo sapiens, 769-P
Description: SANGER: Inhibition of human 769-P cell growth in a cell viability assay.

A2058 = assay type: functional, cell-based; details: Homo sapiens;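 further: reduction of A2058 cell growth, read out with a viability assay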
Description: SANGER: Inhibition of human A2058 cell growth in a cell viability assay.

CAL-120 = assay type: functional, cell-based, Homo sapiens; details: Homo sapiens, CAL-120;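 further: cell growth inhibition, read out as cell viability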
Description: SANGER: Inhibition of human CAL-120 cell growth in a cell viability assay.

CAL-39 = assay type: functional, cell-based, Homo sapiens; details: Homo sapiens, CAL-39;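 further: cell viability assay measuring growth inhibition of CAL-39 cells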
Description: SANGER: Inhibition of human CAL-39 cell growth in a cell viability assay.

TE-6 = assay type: functional, cell-based, Homo sapiens; details: Homo sapiens, TE-6;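 further: growth inhibition of TE-6 cells, read out with a cell viability assay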
Description: SANGER: Inhibition of human TE-6 cell growth in a cell viability assay.

TE-8 = assay type: functional, cell-based, Homo sapiens; details: Homo sapiens, TE-8;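 further: growth inhibition of TE-8 cells, measured with a cell viability readout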
Description: SANGER: Inhibition of human TE-8 cell growth in a cell viability assay.

U-266 = assay type: functional, cell-based; details: Homo sapiens
Description: SANGER: Inhibition of human U-266 cell growth in a cell viability assay.

CAS-1 = assay type: functional, cell-based, Homo sapiens; details: Homo sapiens, CAS-1;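 further: growth inhibition of CAS-1 cells, measured with a cell viability assay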
Description: SANGER: Inhibition of human CAS-1 cell growth in a cell viability assay.

CHL-1 = assay type: functional, cell-based, Homo sapiens; details: Homo sapiens, CHL-1;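 further: cell growth inhibition, read out with a cell viability assay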
Description: SANGER: Inhibition of human CHL-1 cell growth in a cell viability assay.

COLO-680N = assay type: functional, cell-based, Homo sapiens; details: Homo sapiens, COLO-680N;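 further: cell viability assay used to measure inhibition of COLO-680N cell growth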
Description: SANGER: Inhibition of human COLO-680N cell growth in a cell viability assay.

COc1ccc(C2=N[C@@H](c3ccc(Cl)cc3)[C@@H](c3ccc(Cl)cc3)N2C(=O)N2CCNC(=O)C2)c(OC(C)C)c1 [NUTLIN-3]
IC50 (ES3): > 8000 nM | IC50 (EW-13): > 8 µM | IC50 (GB-1): > 8 µM | IC50 (GCIY): > 8000 nM | IC50 (GOTO): 3840 nM | IC50 (GR-ST): > 8 µM | IC50 (GT3TKB): > 8000 nM | IC50 (HCC1395): > 8 µM | IC50 (HCC1419): > 8000 nM | IC50 (HCC1937): > 8000 nM | IC50 (HPAF-II): > 8000 nM | IC50 (HuCCT-1): > 8000 nM | IC50 (HuP-T4): > 8000 nM | IC50 (KP-N-YS): > 8000 nM | IC50 (KYSE-140): > 8 µM | IC50 (KYSE-270): > 8000 nM | IC50 (MDA-MB-231): > 8 µM | IC50 (MHH-NB-11): 3.27 µM | IC50 (MKN-1): > 8000 nM | IC50 (MMAC-SF): > 8000 nM | IC50 (MS-1): > 8 µM | IC50 (NCI-H1092): > 8 µM | IC50 (NCI-H1299): > 8000 nM | IC50 (NCI-H2452): > 8000 nM | IC50 (NCI-H661): 7.87 µM | IC50 (NCI-N87): > 8000 nM | IC50 (OAW-28): > 8 µM | IC50 (OVCAR-5): > 8000 nM | IC50 (P12-Ichikawa): > 8 µM | IC50 (PFSK-1): > 8 µM | IC50 (RO82-W-1): > 8000 nM | IC50 (RS4-11): 2720 nM | IC50 (SBC-1): > 8000 nM | IC50 (SBC-5): > 8000 nM | IC50 (SCC-15): > 8 µM | IC50 (SCC-4): > 8000 nM | IC50 (SK-N-DZ): > 8 µM | IC50 (SKG-IIIa): > 8000 nM | IC50 (SW982): 3510 nM | IC50 (T84): > 8 µM | IC50 697: 5.45 µM | IC50 (769-P): > 8000 nM | IC50 (A2058): > 8000 nM | IC50 (CAL-120): > 8000 nM | IC50 (CAL-39): > 8000 nM | IC50 (TE-6): > 8000 nM | IC50 (TE-8): > 8000 nM | IC50 (U-266): > 8 µM | IC50 (CAS-1): > 8 µM | IC50 (CHL-1): > 8000 nM | IC50 (COLO-680N): > 8000 nM

C=CCNC1=C2C[C@@H](C)C[C@H](OC)[C@H](O)[C@@H](C)/C=C(\C)[C@H](OC(N)=O)[C@@H](OC)/C=C\C=C(/C)C(=O)NC(=CC1=O)C2=O [TANESPIMYCIN]
IC50 (ES3): 591 nM | IC50 (EW-13): > 1 µM | IC50 (GB-1): > 1 µM | IC50 (GCIY): 918 nM | IC50 (GOTO): 452 nM | IC50 (GR-ST): > 1 µM | IC50 (GT3TKB): 59.4 nM | IC50 (HCC1395): > 1 µM | IC50 (HCC1419): 146 nM | IC50 (HCC1937): 163 nM | IC50 (HPAF-II): 213 nM | IC50 (HuCCT-1): 323 nM | IC50 (HuP-T4): 129 nM | IC50 (KP-N-YS): 375 nM | IC50 (KYSE-140): > 1 µM | IC50 (KYSE-270): 231 nM | IC50 (MDA-MB-231): > 1 µM | IC50 (MHH-NB-11): > 1 µM | IC50 (MKN-1): 588 nM | IC50 (MMAC-SF): 105 nM | IC50 (MS-1): > 1 µM | IC50 (NCI-H1092): > 1 µM | IC50 (NCI-H1299): 163 nM | IC50 (NCI-H2452): 140 nM | IC50 (NCI-H661): 0.611 µM | IC50 (NCI-N87): 25.9 nM | IC50 (OAW-28): > 1 µM | IC50 (OVCAR-5): 34.8 nM | IC50 (P12-Ichikawa): > 1 µM | IC50 (PFSK-1): > 1 µM | IC50 (RO82-W-1): 397 nM | IC50 (RS4-11): > 1000 nM | IC50 (SBC-1): 267 nM | IC50 (SBC-5): 201 nM | IC50 (SCC-15): > 1 µM | IC50 (SCC-4): 178 nM | IC50 (SK-N-DZ): > 1 µM | IC50 (SKG-IIIa): 49.9 nM | IC50 (SW982): 30 nM | IC50 (T84): > 1 µM | IC50 697: > 1 µM | IC50 (769-P): 213 nM | IC50 (A2058): 72.3 nM | IC50 (CAL-120): 534 nM | IC50 (CAL-39): 77.7 nM | IC50 (TE-6): 257 nM | IC50 (TE-8): 113 nM | IC50 (U-266): > 1 µM | IC50 (CAS-1): > 1 µM | IC50 (CHL-1): 22.5 nM | IC50 (COLO-680N): 194 nM
